Reference: patent publication US20130039929A1, “METHOD TREATING BREAST CANCER” (priority 2010, published 2013)

Tested on: HIF-1 dependent transcription
Experiment: 5×HRE luciferase reporter assay of hypoxia (CoCl2)-induced transcription in MDAMB-231 cells
Type: cell-based
Conditions: CoCl2 along with thalidomide 10 μM
Text: FIGS. 5A-5E. FIG. 5A. Schematic map of luciferase reporter used; HRE: hypoxia responsive element. FIG. 5B. Assay of hypoxia-induced luciferase activity in the presence of each indicated siRNA transfection. **p<0.001, * p<0.01 versus control/CoCl2 one-way ANOVA, Bonferroni post test. FIG. 5C. Western blot showing the efficiency of knockdown for each βarr isoform. FIG. 5D. Assay of hypoxia induced luciferase reporter activity in Mouse Embryonic Fibroblasts (MEFs) that are null for both βarr1 and 2 under control and βarr1 replete conditions. *** p<0.001, between the two cobalt treated samples, Bonferroni post test, one-way ANOVA, n=3. FIG. 5E. Western blot of lysates showing expression of transfected βarr1.
FIGS. 7A-7D. FIG. 7A. […] FIG. 7B. […] FIG. 7C. […] FIG. 7D.
To test if the above β-arrestin1-HIF-1α interaction has functional consequences, an analysis was made of the effect of β-arrestin1 expression on HIF-1-mediated transcription during hypoxia. One of the most characterized HIF-regulated genes is the potent endothelial mitogen, VEGF-A, which regulates endothelial cell proliferation and blood vessel formation in both normal and cancerous tissues (Liu et al, Circ. Res. 77:638-643 (1995)). The VEGF-A gene contains a HRE in its 5′ UTR (untranslated region) and hypoxia induces a rapid and sustained increase in VEGF-A mRNA levels. […]

## O=C1CCC(N2C(=O)c3ccccc3C2=O)C(=O)N1 (stereo not shown) [thalidomide]
  HIF-1 dependent transcriptional response (5×HRE luciferase reporter activity): complete inhibition
